The record followed here is patent publication US20260062443A1 (ALEXION PHARMACEUTICALS, INC., priority 2022, published 2026).

The structures appear in SMILES notation.

The target of this assay is T1, Human complement C1s enzyme (Homo sapiens, UniProt P09871).
T1 sequence (P09871 438-688 limits assumed): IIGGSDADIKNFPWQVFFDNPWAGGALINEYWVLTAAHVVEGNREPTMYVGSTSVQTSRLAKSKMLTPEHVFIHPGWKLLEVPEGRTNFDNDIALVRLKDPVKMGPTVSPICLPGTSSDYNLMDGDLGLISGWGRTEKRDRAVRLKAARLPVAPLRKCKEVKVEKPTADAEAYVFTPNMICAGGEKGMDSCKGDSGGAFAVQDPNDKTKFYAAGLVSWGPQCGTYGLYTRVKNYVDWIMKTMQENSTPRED
T1 sequence (P09871 16-437 partner limits assumed): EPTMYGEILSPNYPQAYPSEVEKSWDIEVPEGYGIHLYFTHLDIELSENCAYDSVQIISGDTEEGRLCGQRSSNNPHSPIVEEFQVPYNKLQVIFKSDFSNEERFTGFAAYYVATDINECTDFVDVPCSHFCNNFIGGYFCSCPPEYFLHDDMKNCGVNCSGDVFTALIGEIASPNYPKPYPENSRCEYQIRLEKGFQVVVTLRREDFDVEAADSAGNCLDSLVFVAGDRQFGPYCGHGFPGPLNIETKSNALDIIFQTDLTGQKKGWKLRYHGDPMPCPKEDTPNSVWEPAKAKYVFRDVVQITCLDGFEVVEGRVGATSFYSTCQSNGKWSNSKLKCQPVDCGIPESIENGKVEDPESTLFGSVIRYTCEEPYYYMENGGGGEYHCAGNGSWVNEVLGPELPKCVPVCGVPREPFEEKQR
The experiment in a line: Human C1s enzyme assay. Type of assay: biochemical. The conditions noted are these: human complement C1s enzyme 1.16 nM, substrate Z-L-Lys-SBzl 100 μM, 5 min preincubation; read-out: IC50 (Stars), C1s Inhibiting Activity. Put shortly: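 Serum-purified human C1s (1.16 nM final) preincubated 5 min at room temperature with compound in 50 mM Tris, 1 M NaCl, pH 7.5. Z-L-Lys-SBzl and DTNB added at 100 μM each; A405 followed every 30 s for 30 min, and IC50 obtained by nonlinear regression of reaction rates.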
As to `O=C(NCC(=O)N1C[C@H](OC(F)F)C[C@H]1C(=O)NCc1ccc2[nH]cnc2n1)c1ccc2c(c1)Oc1ccccc1S2` [Compound 258, (2S,4R)-N-((1H-imidazo[4,5-b]pyridin-5-yl)methyl)-4-(difluoromethoxy)-1-((phenoxathiine-3-carbonyl)glycyl)pyrrolidine-2-carboxamide], the IC50 was over 1 µM.
The same measure for `C[C@@H](NC(=O)[C@@H]1C[C@](F)(Cn2ccnc2)CN1C(=O)CNC(=O)c1ccc2c(c1)Oc1ccccc1S2)c1cc2cnccc2[nH]1` [Compound 217, (2S,4S)-4-((1H-imidazol-1-yl)methyl)-N-((R)-1-(1H-pyrrolo[3,2-c]pyridin-2-yl)ethyl)-4-fluoro-1-((phenoxathiine-3-carbonyl)glycyl)pyrrolidine-2-carboxamide]: under 0.1 µM; for `COC[C@@]1(F)C[C@@H](C(=O)N[C@H](CO)c2cc3cnccc3[nH]2)N(C(=O)CNC(=O)c2ccc(Oc3ccc(F)cc3)cc2)C1` [Compound 97, (2S,4R)-4-fluoro-1-((4-(4-fluorophenoxy)benzoyl)glycyl)-N-((S)-2-hydroxy-1-(1H-pyrrolo[3,2-c]pyridin-2-yl)ethyl)-4-(methoxymethyl) pyrrolidine-2-carboxamide]: over 1 µM.
For `CC1(C)c2ccccc2-c2cc(C(=O)NCC(=O)N3C[C@H](OC(F)F)C[C@H]3C(=O)NCc3cc4cnccc4[nH]3)ccc21` [Compound 301, (2S,4R)-N-((1H-pyrrolo[3,2-c]pyridin-2-yl)methyl)-4-(difluoromethoxy)-1-((9,9-dimethyl-9H-fluorene-3-carbonyl)glycyl) pyrrolidine-2-carboxamide] the value was under 0.1 µM; for `C[C@H]1C[C@@H](C(=O)N[C@H](C)c2cc3cnccc3[nH]2)N(C(=O)CNC(=O)c2ccc3c(c2)Oc2ccccc2S3)C1` [Compound 165, (2S,4S)-N-((R)-1-(1H-pyrrolo[3,2-c]pyridin-2-yl)ethyl)-4-methyl-1-((phenoxathiine-3-carbonyl)glycyl)pyrrolidine-2-carboxamide], under 0.1 µM; for `O=C(NCC(=O)N1C[C@H](OC(F)F)C[C@H]1C(=O)NCc1cc2cnccc2s1)c1cccc(Oc2ccccc2)c1` [Compound 235, (2S,4R)-4-(difluoromethoxy)-1-((3-phenoxybenzoyl)glycyl)-N-(thieno[3,2-c]pyridin-2-ylmethyl)pyrrolidine-2-carboxamide], under 0.1 µM.
The same measure for `Nc1nc(=O)oc2cc(CNC(=O)[C@@H]3C[C@@H](OC(F)F)CN3C(=O)CNC(=O)c3ccc4c(c3)Oc3ccccc3S4)ccc12` [Compound 248, (2S,4R)-N-((4-amino-2-oxo-2H-benzo[e][1,3]oxazin-7-yl)methyl)-4-(difluoromethoxy)-1-((phenoxathiine-3-carbonyl)glycyl)pyrrolidine-2-carboxamide]: over 1 µM.
Consider `C[C@@H](NC(=O)[C@@H]1CC2(CN1C(=O)CNC(=O)c1ccc3c(c1)-c1ccccc1C3(F)F)OCCO2)c1cc2cnccc2[nH]1` [Compound 38, (S)-N-((R)-1-(1H-pyrrolo[3,2-c]pyridin-2-yl)ethyl)-7-((9,9-difluoro-9H-fluorene-3-carbonyl)glycyl)-1,4-dioxa-7-azaspiro[4.4]nonane-8-carboxamide], for which the IC50 was under 0.1 µM.
The same measure for `C[C@H](NC(=O)[C@@H]1C[C@]2(C)C[C@@H]2N1C(=O)CNC(=O)CCCOc1ccccc1)c1cc2cnccc2[nH]1` [Compound 57, (1S,3S,5S)-N-((S)-1-(1H-pyrrolo[3,2-c]pyridin-2-yl)ethyl)-5-methyl-2-((4-phenoxybutanoyl)glycyl)-2-azabicyclo[3.1.0]hexane-3-carboxamide]: over 1 µM; for `O=C(NCC(=O)N1C[C@@](F)(CF)C[C@H]1C(=O)N[C@H](CO)c1cc2cnccc2[nH]1)c1ccc(Oc2ccc(F)cc2)cc1` [Compound 95, (2S,4R)-4-fluoro-4-(fluoromethyl)-1-((4-(4-fluorophenoxy)benzoyl)glycyl)-N-((S)-2-hydroxy-1-(1H-pyrrolo[3,2-c]pyridin-2-yl)ethyl)pyrrolidine-2-carboxamide]: over 1 µM.
